# BindingDB's records for patent US11547697 (Millennium Pharmaceuticals, 2023)
# pIC50: −log10 of the molar value.
# Molecular target: Phosphatidylinositol 4,5-bisphosphate 3-kinase catalytic subunit beta isoform (Homo sapiens, UniProt P42338)
# Assay: Inhibition Assay of PI3K
# Protocol: (§1) An exemplary system is PI 3-Kinase (human) HTRF Assay from Upstate. […] Briefly, the assay is a time resolved FRET assay that indirectly measures PIP3 product formed by the activity of a PI3-K. The kinase reaction is performed in a microtitre plate (e.g., a 384 well microtitre plate). The total reaction volume is approximately 20 ul per well. In the first step, each well receives 2 ul of test compound in 20% dimethylsulphoxide resulting in a 2% DMSO final concentration. Next, approximately 14.5 ul of a kinase/PIP2 mixture (diluted in 1× reaction buffer) is added per well for a final concentration of 0.25-0.3 ug/ml kinase and 10 μM PIP2. The plate is sealed and incubated for 15 minutes at room temperature. To start the reaction, 3.5 ul of ATP (diluted in 1× reaction buffer) is added per well for a final concentration of 10 μM ATP. The plate is sealed and incubated for 1 hour at room temperature. The reaction is stopped by adding 5 ul of Stop Solution per well and then 5 ul of Detection Mix is added per well. The plate is sealed, incubated for 1 hour at room temperature, and then read on an appropriate plate reader.
# Sequence of Phosphatidylinositol 4,5-bisphosphate 3-kinase catalytic subunit beta isoform (P42338 whole entry, canonical isoform): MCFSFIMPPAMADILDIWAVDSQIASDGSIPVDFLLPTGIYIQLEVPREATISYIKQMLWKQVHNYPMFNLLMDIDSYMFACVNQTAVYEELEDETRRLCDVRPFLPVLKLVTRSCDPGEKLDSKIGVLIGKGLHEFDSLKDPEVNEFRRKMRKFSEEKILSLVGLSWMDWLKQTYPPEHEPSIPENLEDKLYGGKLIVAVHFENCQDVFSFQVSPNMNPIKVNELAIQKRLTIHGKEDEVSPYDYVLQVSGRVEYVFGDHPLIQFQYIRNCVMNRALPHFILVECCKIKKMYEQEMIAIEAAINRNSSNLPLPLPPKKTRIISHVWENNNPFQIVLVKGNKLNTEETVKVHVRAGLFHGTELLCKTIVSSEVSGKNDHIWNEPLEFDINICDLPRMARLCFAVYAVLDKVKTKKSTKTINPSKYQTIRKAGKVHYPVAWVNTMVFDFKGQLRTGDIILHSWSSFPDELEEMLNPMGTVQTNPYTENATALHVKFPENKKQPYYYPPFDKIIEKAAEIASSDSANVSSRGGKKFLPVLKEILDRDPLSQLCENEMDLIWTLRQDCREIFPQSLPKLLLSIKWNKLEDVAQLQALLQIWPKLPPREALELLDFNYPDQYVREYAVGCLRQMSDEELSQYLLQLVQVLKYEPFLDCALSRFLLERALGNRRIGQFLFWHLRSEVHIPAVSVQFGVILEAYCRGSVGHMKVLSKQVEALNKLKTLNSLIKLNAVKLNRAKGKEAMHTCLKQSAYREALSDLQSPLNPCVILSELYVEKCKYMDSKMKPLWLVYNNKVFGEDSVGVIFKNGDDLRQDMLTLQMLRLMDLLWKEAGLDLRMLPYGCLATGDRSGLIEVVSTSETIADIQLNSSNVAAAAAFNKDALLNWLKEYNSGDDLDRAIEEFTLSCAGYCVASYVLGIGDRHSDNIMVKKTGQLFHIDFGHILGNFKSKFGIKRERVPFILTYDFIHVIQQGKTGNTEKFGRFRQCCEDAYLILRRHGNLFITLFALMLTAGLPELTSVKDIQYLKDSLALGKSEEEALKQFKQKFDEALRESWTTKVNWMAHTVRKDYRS
row,Compound,pIC50
1,"Nc1ccc2cc(-c3ccc4nccc(-c5ccncc5)c4c3)ccc2n1 [US11547697, Compound 5]",< 5.00

# Molecular target: T1, Phosphatidylinositol 4,5-bisphosphate 3-kinase catalytic subunit delta isoform (Homo sapiens, UniProt O00329)
# T1 sequence (O00329 whole entry): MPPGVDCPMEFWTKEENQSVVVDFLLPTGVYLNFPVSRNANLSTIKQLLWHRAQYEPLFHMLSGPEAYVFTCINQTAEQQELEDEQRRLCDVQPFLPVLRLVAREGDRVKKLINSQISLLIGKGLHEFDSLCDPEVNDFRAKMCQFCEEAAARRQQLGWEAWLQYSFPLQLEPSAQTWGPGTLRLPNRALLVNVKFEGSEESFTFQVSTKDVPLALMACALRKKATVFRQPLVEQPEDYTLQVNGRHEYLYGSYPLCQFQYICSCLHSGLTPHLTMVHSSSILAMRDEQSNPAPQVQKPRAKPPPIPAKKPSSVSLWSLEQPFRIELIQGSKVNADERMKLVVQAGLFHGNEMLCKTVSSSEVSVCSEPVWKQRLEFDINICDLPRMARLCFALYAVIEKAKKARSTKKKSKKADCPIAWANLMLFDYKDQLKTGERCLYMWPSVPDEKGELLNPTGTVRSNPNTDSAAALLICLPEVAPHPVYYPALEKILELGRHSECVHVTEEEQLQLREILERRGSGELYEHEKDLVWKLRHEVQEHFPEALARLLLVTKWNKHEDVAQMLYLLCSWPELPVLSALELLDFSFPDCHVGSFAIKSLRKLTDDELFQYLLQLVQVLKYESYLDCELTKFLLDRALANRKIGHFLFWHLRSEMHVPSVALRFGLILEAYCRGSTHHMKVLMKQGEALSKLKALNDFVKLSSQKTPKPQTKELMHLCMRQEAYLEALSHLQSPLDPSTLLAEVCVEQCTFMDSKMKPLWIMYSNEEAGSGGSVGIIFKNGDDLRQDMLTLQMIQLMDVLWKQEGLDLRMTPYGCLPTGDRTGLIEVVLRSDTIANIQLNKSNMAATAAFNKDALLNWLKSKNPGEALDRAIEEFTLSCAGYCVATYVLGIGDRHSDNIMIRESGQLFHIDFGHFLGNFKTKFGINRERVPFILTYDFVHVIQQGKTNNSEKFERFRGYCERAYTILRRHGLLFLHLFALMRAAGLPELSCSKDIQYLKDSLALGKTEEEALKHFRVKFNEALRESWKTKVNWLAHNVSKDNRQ
# Assay: Inhibition Assay of PI3K
# Protocol: as §1
row,Compound,pIC50
1,"Nc1nc2cc(-c3ccc4nccc(NC5CCOCC5)c4c3)ccc2o1 [US11547697, Compound 32]",< 5.00
2,"Nc1nc2cc(-c3ccc4nccn4c3)ccc2o1 [US11547697, Compound 40]",< 5.00
3,"Cc1nc2ccc(-c3ccc4oc(N)nc4c3)nn2c1-c1ccncc1 [US11547697, Compound 56]",< 5.00
4,"Nc1nc2cc(-c3ccc4ncc(N5CCOCC5)n4n3)ccc2o1 [US11547697, Compound 57]",< 5.00
5,"Nc1nc2cc(-c3ccc4ncc(N5CCOCC5)nc4c3)ccc2o1 [US11547697, Compound 64]",< 5.00
6,"Nc1nc2cc(-c3ccc4ncc(=O)[nH]c4c3)ccc2o1 [US11547697, Compound 72]",< 5.00
7,"CC(C)N1CCC(n2cnc3ccc(-c4ccc5oc(N)nc5c4)cc3c2=O)CC1 [US11547697, Compound 74]",< 5.00
8,"Nc1nc2cc(-c3ccc4ncn(C5CCNCC5)c(=O)c4c3)ccc2o1 [US11547697, Compound 75]",< 5.00
9,"Nc1nc2cc(-c3ccc4ncc(C(=O)N5CCOCC5)n4n3)ccc2o1 [US11547697, Compound 105]",< 5.00
10,"Nc1nc2cc(-c3ccc4ncc(-c5cnn(CCO)c5)nc4c3)ccc2o1 [US11547697, Compound 108]",< 5.00
11,"CN1CCN(c2cnc3ccc(-c4ccc5nc(N)sc5c4)cc3n2)CC1 [US11547697, Compound 115]",< 5.00
12,"Nc1nc2cc(-c3ccc4ncc(N5CCOCC5)nc4c3)ccc2s1 [US11547697, Compound 116]",< 5.00
13,"Nc1nc2ccc(-c3ccc4ncc(N5CCOCC5)nc4c3)cc2o1 [US11547697, Compound 117]",< 5.00
14,"CN1CCN(c2cnc3ccc(-c4ccc5nc(N)oc5c4)cc3n2)CC1 [US11547697, Compound 118]",< 5.00
15,"Nc1nc2ccc(-c3ccc4ncc(C(=O)N5CCOCC5)n4c3)cc2o1 [US11547697, Compound 124]",< 5.00
16,"Nc1nc2cc(-c3ccc4ncc(C(=O)N5CCOCC5)n4c3)ccc2s1 [US11547697, Compound 126]",< 5.00
17,"CN1CCN(c2cnc3ccc(-c4ccc5sc(N)nc5c4)cc3n2)CC1 [US11547697, Compound 127]",< 5.00
18,"Nc1nc2cc(-c3ccc4ncc(N5CCNC(=O)C5)nc4c3)ccc2o1 [US11547697, Compound 135]",< 5.00
19,"CN1CCCN(c2cnc3ccc(-c4ccc5oc(N)nc5c4)cc3n2)CC1 [US11547697, Compound 136]",< 5.00
20,"CN1CCN(C(=O)c2cnc3ccc(-c4ccc5nc(N)oc5c4)cn23)CC1 [US11547697, Compound 145]",< 5.00
21,"CN(CCN1CCOCC1)c1cnc2ccc(-c3ccc4oc(N)nc4c3)cc2n1 [US11547697, Compound 166]",< 5.00
22,"Nc1nc2cc(-c3ccc4ncn(CCO)c(=O)c4c3)ccc2o1 [US11547697, Compound 184]",< 5.00
23,"Nc1nc2cc(-c3ccc4ncc(-c5ccccn5)nc4c3)ccc2o1 [US11547697, Compound 195]",< 5.00
24,"Nc1nc2cc(-c3ccc4ncc(C(=O)N5CCCCC5)n4c3)ccc2o1 [US11547697, Compound 196]",< 5.00
25,"CC1CN(C(=O)c2cnc3ccc(-c4ccc5oc(N)nc5c4)cn23)CCO1 (stereo unspecified) [US11547697, Compound 201]",< 5.00
26,"Nc1nc2cc(-c3ccc4nnc(-c5ccncc5)n4c3)ccc2o1 [US11547697, Compound 229]",< 5.00
27,"CC(=O)Nc1nc2ccc(-c3ccc4nc(N)oc4c3)cc2s1 [US11547697, Compound 242]",< 5.00
28,"Nc1nc2ccc(-c3ccc4nc(N)sc4c3)cc2o1 [US11547697, Compound 243]",< 5.00

row,Compound,pIC50
1,"Nc1cn2cc(-c3ccc4oc(N)nc4c3)ccc2n1 [US11547697, Compound 245]",< 5.00
2,"Nc1nc2cc(-c3ccc4ncc(N5CCN(C6CC6)CC5)nc4c3)ccc2o1 [US11547697, Compound 261]",< 5.00
3,"COCCn1cnc2ccc(-c3ccc4oc(N)nc4c3)cc2c1=O [US11547697, Compound 272]",< 5.00
4,"Nc1nc2cc(-c3ccc4ncn(CCN5CCOCC5)c(=O)c4c3)ccc2o1 [US11547697, Compound 289]",< 5.00
5,"C[C@H]1CN(c2cnc3ccc(-c4ccc5nc(N)sc5c4)cc3n2)CCN1 [US11547697, Compound 308]",< 5.00
6,"C[C@H]1CN(c2cnc3ccc(-c4ccc5nc(N)oc5c4)cc3n2)CCN1 [US11547697, Compound 309]",< 5.00
7,"Nc1nc2cc(-c3ccc4ncc(C(=O)N(CCO)CCO)n4c3)ccc2o1 [US11547697, Compound 316]",< 5.00
8,"Nc1nc2cc(-c3ccc4ncc(N5CC(n6cccn6)C5)nc4c3)ccc2o1 [US11547697, Compound 318]",< 5.00
9,"Nc1nc2cc(-c3ccn4ncc(C(=O)N5CCCC5)c4c3)ccc2o1 [US11547697, Compound 346]",< 5.00
10,"Nc1nc2cc(-c3ccn4ncc(C(=O)N5CCOCC5)c4c3)ccc2o1 [US11547697, Compound 347]",< 5.00
11,"Cc1cc(-c2ccc3ncc(C(=O)N4CCOCC4)n3c2)cc2nc(N)oc12 [US11547697, Compound 364]",< 5.00
12,"CN(C)C1CN(c2cnc3ccc(-c4ccc5oc(N)nc5c4)cc3n2)C1 [US11547697, Compound 366]",< 5.00
13,"COCCN1CCN(c2cnc3ccc(-c4ccc5oc(N)nc5c4)cc3n2)CC1 [US11547697, Compound 387]",< 5.00
14,"Nc1nc2cc(-c3ccc4ncc(C(=O)N5CCOCC5)n4c3)cnc2o1 [US11547697, Compound 400]",< 5.00
15,"Nc1nc2cc(-c3ccc4c(N)n[nH]c4c3)ccc2o1 [US11547697, Compound 428]",< 5.00
16,"CC(=O)Nc1n[nH]c2cc(-c3ccc4oc(N)nc4c3)ccc12 [US11547697, Compound 430]",< 5.00
17,"Nc1nc2cc(-c3cc(F)c4oc(N)nc4c3)ccc2o1 [US11547697, Compound 432]",< 5.00
18,"CC(=O)Nc1nc2cc(-c3cc(F)c4oc(N)nc4c3)ccc2s1 [US11547697, Compound 435]",< 5.00
19,"Nc1nc2cc(-c3ccc4sc(N)nc4c3)cc(F)c2o1 [US11547697, Compound 437]",< 5.00
20,"Cc1cc(-c2ccc3nc(N)oc3c2)cn2c(C(=O)N3CCOCC3)cnc12 [US11547697, Compound 449]",< 5.00
21,"Nc1nc2cc(-c3ccc4ncc(C(=O)N5CC(F)C5)n4c3)ccc2o1 [US11547697, Compound 468]",< 5.00
22,"C[C@H]1COCCN1C(=O)c1cnc2ccc(-c3ccc4oc(N)nc4c3)cn12 [US11547697, Compound 483]",< 5.00
23,"Nc1nc2cc(-c3ccc4ncc(C(=O)N5CCn6cncc6C5)n4c3)ccc2o1 [US11547697, Compound 493]",< 5.00
24,"Nc1nc2cc(-c3ccc4ncc(C(=O)N5CC6(C5)OCCO6)n4c3)ccc2o1 [US11547697, Compound 494]",< 5.00
25,"C[C@@H]1COCCN1C(=O)c1cnc2ccc(-c3ccc4oc(N)nc4c3)cn12 [US11547697, Compound 495]",< 5.00
26,"Nc1nc2c(-c3ccc4ncc(C(=O)N5CCOCC5)n4c3)cccc2o1 [US11547697, Compound 496]",< 5.00
27,"Nc1nc2cc(-c3ccc4ncc(C(=O)N5CC6CCC(C5)O6)n4c3)ccc2o1 [US11547697, Compound 504]",< 5.00
